In PubChem BioAssay (NCI):
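A five-concentration, 48-hour dose response in 96-well plates underlies each endpoint, interpolated linearly between surrounding concentrations. TGI is the concentration that stops growth completely.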

How the values were obtained:
Test in all cases: NCI anticancer screen, dose series, 48 h
A498 renal = tested on: A498 renal
BT-549 breast = tested on: BT-549 breast
CAKI-1 renal = tested on: CAKI-1 renal
DU-145 prostate = tested on: DU-145 prostate
HS 578T breast = tested on: HS 578T breast
MCF7 breast = tested on: MCF7 breast
MDA-MB-231 breast = tested on: MDA-MB-231 breast
MDA-MB-435 = tested on: MDA-MB-435
MDA-N = tested on: MDA-N
NCI-H23 lung = tested on: NCI-H23 lung
PC-3 prostate = tested on: PC-3 prostate
RXF 393 renal = tested on: RXF 393 renal
SF-268 CNS = tested on: SF-268 CNS
SK-MEL-28 melanoma = tested on: SK-MEL-28 melanoma
SNB-19 CNS = tested on: SNB-19 CNS
T-47D breast = tested on: T-47D breast
SR leukemia = tested on: SR leukemia
KM20L2 colon = tested on: KM20L2 colon
LXFL 529 NSCLC = tested on: LXFL 529 NSCLC
M19-MEL melanoma = tested on: M19-MEL melanoma

Row | Compound | TGI (A498 renal) | TGI (BT-549 breast) | TGI (CAKI-1 renal) | TGI (DU-145 prostate) | TGI (HS 578T breast) | TGI (MCF7 breast) | TGI (MDA-MB-231 breast) | TGI (MDA-MB-435) | TGI (MDA-N) | TGI (NCI-H23 lung) | TGI (PC-3 prostate) | TGI (RXF 393 renal) | TGI (SF-268 CNS) | TGI (SK-MEL-28 melanoma) | TGI (SNB-19 CNS) | TGI (T-47D breast) | TGI (SR leukemia) | TGI (KM20L2 colon) | TGI (LXFL 529 NSCLC) | TGI (M19-MEL melanoma)
1 | c1ccc(N2N=C3N(c4ccccc4)C2N3c2ccccc2)cc1 | > 100 µM | > 100 µM | > 100 µM | > 100 µM | > 100 µM | > 100 µM | > 100 µM | 31.6 µM | 41.8 µM | > 100 µM | > 100 µM | > 100 µM | > 100 µM | 43.4 µM | > 100 µM | > 100 µM |  |  |  | 
2 | CCCCn1c(C)c2c(c1C)C(=O)N(CCN1CCN(c3ccccc3Cl)CC1)C2=O | > 100 µM | 41.7 µM | > 100 µM | > 100 µM | > 100 µM | 99 µM | > 100 µM | 90.3 µM | > 100 µM | 85.4 µM | 79.5 µM |  | 32.4 µM |  | > 100 µM | 75 µM | 58.7 µM |  |  | 
3 | CC(=O)OCc1nnn2c1CCC2 |  |  |  |  |  |  |  |  |  |  |  | > 100 µM |  | > 100 µM |  |  | > 100 µM | > 100 µM | > 100 µM | > 100 µM
